Among the data in US12577206B2 (BRISTOL-MYERS SQUIBB COMPANY, priority 2020, dated 2026) are EC50 values, retold here.

For orientation: EC50 means the midpoint of the concentration-response curve.

One test addresses T1, human FPR2 (Homo sapiens, UniProt P25090).
T1 sequence (P25090 1-351): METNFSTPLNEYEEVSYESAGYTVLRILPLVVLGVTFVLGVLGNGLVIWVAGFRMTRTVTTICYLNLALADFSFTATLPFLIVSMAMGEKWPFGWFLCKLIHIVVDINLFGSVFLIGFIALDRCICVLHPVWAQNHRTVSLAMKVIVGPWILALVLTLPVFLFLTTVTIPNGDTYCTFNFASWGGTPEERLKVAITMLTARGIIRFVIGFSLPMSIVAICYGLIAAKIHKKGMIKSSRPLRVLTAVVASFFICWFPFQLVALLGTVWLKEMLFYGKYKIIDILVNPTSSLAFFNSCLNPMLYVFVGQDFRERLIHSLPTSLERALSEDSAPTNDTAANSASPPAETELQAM
Briefly: FPR2 cyclic adenosine monophosphate (cAMP) assay. As to conditions: CHO cells overexpressing human FPR2; forskolin 5 μM; inhibition of cAMP production; HTRF; read-out: hFPR2 cAMP2 EC50. The test is classed as cell-based. In outline: (§1)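 Inhibition of forskolin-stimulated cAMP (final forskolin 5 μM for FPR2, 10 μM for FPR1; IBMX 200 μM) was measured by HTRF in recombinant CHO cells after 30 min at room temperature.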
Background: Changes in cAMP serve as a functional read-out for many G protein-coupled receptors.

The target in another test is T2, human FPR1 (Homo sapiens, UniProt P21462).
T2 sequence (P21462 1-350): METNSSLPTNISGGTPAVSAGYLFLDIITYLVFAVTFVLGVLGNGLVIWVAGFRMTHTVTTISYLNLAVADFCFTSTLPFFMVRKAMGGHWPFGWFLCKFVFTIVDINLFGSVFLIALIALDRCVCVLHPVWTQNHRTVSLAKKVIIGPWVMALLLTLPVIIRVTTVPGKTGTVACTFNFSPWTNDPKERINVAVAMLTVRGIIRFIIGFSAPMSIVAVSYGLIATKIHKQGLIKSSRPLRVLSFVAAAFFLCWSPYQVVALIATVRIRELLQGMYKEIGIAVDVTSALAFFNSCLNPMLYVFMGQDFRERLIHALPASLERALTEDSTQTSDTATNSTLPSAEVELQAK
Briefly: FPR1 cyclic adenosine monophosphate (cAMP) assay. The test is classed as cell-based. As to conditions: CHO cells overexpressing human FPR1; forskolin 10 μM; inhibition of cAMP production; HTRF; read-out: hFPR1 cAMP2 EC50. Put shortly: as §1

With `COc1cc(OCCC(C)(C)O)nc(-n2c(=O)c(NC(=O)c3ccc(OC(F)F)cc3)c(-c3c(F)cc(OC)cc3F)n2C)c1` [Example 379, N-(5-(2,6-Difluoro-4-methoxyphenyl)-2-(6-(3-hydroxy-3-methylbutoxy)-4-methoxypyridin-2-yl)-1-methyl-3-oxo-2,3-dihydro-1H-pyrazol-4-yl)-4-(difluoromethoxy)benzamide], the results for the EC50 on human FPR2 and at human FPR1 were 7 nM and > 10000 nM, respectively.

With `COC(=O)COc1ccc(C(F)(F)F)c(-n2c(=O)c(NC(=O)c3ccc(OC(F)F)cc3)c(-c3c(F)cc(OC)cc3F)n2C)n1` [Example 289, methyl 2-({6-[3-(2,6-difluoro-4-methoxyphenyl)-4-[4-(difluoromethoxy)benzamido]-2-methyl-5-oxo-2,5-dihydro-1H-pyrazol-1-yl]-5-(trifluoromethyl)pyridin-2-yl}oxy)acetate], the figures for the EC50 on human FPR2 and at human FPR1 were 4 nM and > 10000 nM, respectively.

`COCC(CO)Oc1cc(OC)cc(-n2c(=O)c(NC(=O)c3ccc(OC(F)F)cc3)c(-c3c(F)cc(OC)cc3F)n2C)n1` (stereo not shown) [Example 386, N-(5-(2,6-Difluoro-4-methoxyphenyl)-2-(6-((1-hydroxy-3-methoxypropan-2-yl)oxy)-4-methoxypyridin-2-yl)-1-methyl-3-oxo-2,3-dihydro-1H-pyrazol-4-yl)-4-(difluoromethoxy)benzamide]: the EC50 on human FPR2 was 9 nM; on human FPR1, > 10000 nM.

For the compound `COc1cc(Cl)cc(-n2c(=O)c(NC(=O)c3ccc(OC(F)F)cc3)c(-c3c(F)cc(OC)cc3F)n2C)c1` [Example 124, N-[2-(3-chloro-5-methoxyphenyl)-5-(2,6-difluoro-4-methoxyphenyl)-1-methyl-3-oxo-2,3-dihydro-1H-pyrazol-4-yl]-4-(difluoromethoxy)benzamide], the EC50 was 4 nM at human FPR2 and > 10000 nM on human FPR1.

In the case of `COc1cc(-n2c(=O)c(NC(=O)c3ccc(OC(F)F)cc3)c(-c3c(F)cc(OC)cc3F)n2C)nc(C2(O)CCC2)c1` [Example 100, N-[5-(2,6-difluoro-4-methoxyphenyl)-2-[6-(1-hydroxycyclobutyl)-4-methoxypyridin-2-yl]-1-methyl-3-oxo-2,3-dihydro-1H-pyrazol-4-yl]-4-(difluoromethoxy)benzamide], the EC50 on human FPR2 was found to be 2 nM; on human FPR1 it was 1600 nM.

Turning to `COc1cc(F)c(-c2c(NC(=O)c3ccc(OC(F)F)cc3)c(=O)n(-c3nccc(C4CCCCC4)c3C#N)n2C)c(F)c1` [Example 199, N-[2-(3-cyano-4-cyclohexylpyridin-2-yl)-5-(2,6-difluoro-4-methoxyphenyl)-1methyl-3-oxo-2,3-dihydro-1H-pyrazol-4-yl]-4-(difluoromethoxy)benzamide], the EC50 on human FPR2 came to 5 nM; at human FPR1, 900 nM.

As for `COc1cc(F)c(-c2c(NC(=O)c3ccc(OC(F)F)cc3)c(=O)n(-c3cncc(C)n3)n2C)c(F)c1` [Example 61, N-[5-(2,6-difluoro-4-methoxyphenyl)-1-methyl-2-(6-methylpyrazin-2-yl)-3-oxo-2,3-dihydro-1H-pyrazol-4-yl]-4-(difluoromethoxy)benzamide], the EC50 at human FPR2 was found to be 11 nM; at human FPR1, 1600 nM.

In the case of `COc1cc(F)c(-c2c(NC(=O)c3ccc(OC(F)F)cc3)c(=O)n(-c3nc(N(C)S(C)(=O)=O)ccc3C(F)(F)F)n2C)c(F)c1` [Example 241, N-[5-(2,6-difluoro-4-methoxyphenyl)-1-methyl-2-[6-(N-methylmethanesulfonamido)-3-(trifluoromethyl)pyridin-2-yl]-3-oxo-2,3-dihydro-1H-pyrazol-4-yl]-4-(difluoromethoxy)benzamide], the EC50 at human FPR2 is 2 nM; at human FPR1 it was > 10000 nM.
